Measurements: patent US8597904B2, “Pharmaceutical compositions for the treatment of conditions responsive to proteasome inhibition” (priority 2007, dated 2013)
Where two headings read alike, the source gives them in different places.

Legend:
[1] = target: T1, proteasome activity in SKOV3 ovarian cancer cells (Homo sapiens, UniProt P28074); assay: Proteasome-Glo cell-based luminescent assay
T1 construct: in vivo proteasome activity in SK-N-SH neuroblastoma cells and SKOV3 human ovarian cancer cells; endogenous in cells; host or cells: SKOV3
T1 sequence (P28074 60-263): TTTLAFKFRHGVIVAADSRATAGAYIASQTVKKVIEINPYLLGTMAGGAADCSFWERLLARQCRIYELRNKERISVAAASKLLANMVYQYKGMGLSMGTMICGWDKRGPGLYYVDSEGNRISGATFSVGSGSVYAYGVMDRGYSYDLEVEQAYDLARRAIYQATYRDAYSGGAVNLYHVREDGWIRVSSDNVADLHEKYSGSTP
Description: Syringolin A was tested as a proteasome inhibitor in vivo in cultured mammalian cancer cells. Inhibition of proteasome activity in human SK-N-SH neuroblastoma cells was measured using the Proteasome-Glo™ cell-based luminescent assay (Promega) in solid white 96-well microtiter cell culture plates. Ten μl of syringolin A (at various concentrations) was added to each well containing SK-N-SH cells (plated at a concentration of 1.0×10^5 cells/ml in 90 μl well volumes 24 hours prior) and a negative control and media only control were included. Cells were incubated with 1-100 μM syringolin A for 2 hours or 24 hours, and then equilibrated to room temperature for 15 minutes before 100 μl of Proteasome-Glo reagent (containing bioluminescent substrate Suc-LLVY-aminoluciferin) was added to the cells. Luminescence (indicated as relative luminescence units [RLU]) was read after 15-30 minutes on a Dynex MLX Luminometer.
The cell culture-based proteasome inhibition assay was performed as previously described (Groll et al. 2008. Nature 452:755-758, which is incorporated herein by reference in its entirety). Briefly, wells of white-walled 96-well microtiter cell culture plates were seeded at a density of 1×10^4 cells/well (SK-N-SH) or 5×10^3 cells/well (SKOV3) in 90 μl. After 24 hours, 10 μl GlbA or SylA were added at increasing concentrations (0-100 μM) and incubated for 2 hours. […] Cell Death Differ 9:1017-1025; Meng, et al. 1999. PNAS 96:10403-10408, each of which is incorporated herein by reference in its entirety) were used as positive and negative controls, respectively. Microtiter plates were then equilibrated to room temperature for 15 min before adding 100 μl of proteasome Glo™ reagent (containing bioluminescent substrate Suc-LLVY-aminoluciferin) per well. Luminescence was measured on a Dynex MLX luminometer, according to the manufacturer's instructions (Promega).

TH-MYCN transgenic mouse = assay: chemoprevention in TH-MYCN mouse model of human neuroblastoma; type: in vivo; conditions: homozygous mice, treatment from week 4 or 5, vs untreated mice
Excerpt: The TH-MYCN transgenic mouse is a well-established neuroblastoma mouse model (Hansfored, et al. 2004. PNAS 101(34):12664-12669; Weiss, et al. 2007. Cancer Res 67(19):9435-9442; Weiss, et al. 2000. Cancer Res 6″2483-2487, each of which is incorporated herein by reference in its entirety). The tumors are caused by targeted expression of MYCN to the neural crest under the control of the rat tyrosine hydroxylase promoter, where the mice develop a tumor phenotype that closely resembles the human disease. The tumors in this strain of mouse generally develop in the abdominal and thoracic areas. TH-MYCN breeder pairs are supplied as hemizygote (129×1/SvJ-Tg(TH-MYCN)41Waw) and a wild type mate (129×1/SvJ).
Treatment regimen is similar to that described in Example 16. Test compounds are administered to homozygous mice at a dose that is developed based upon the results of the initial dose and toxicity study (Example 15). Two to four doses per compound are administered by i.p. and/or i.v. methods into homozygous mice at week 4 or 5 (in advance of tumor development, which occurs closer to week 7). Vehicle is delivered as a control. Further doses are administered every 72 hours thereafter for 3 to 6 weeks. Between eight to twelve mice are tested in the study for administration of each compound. […] At the conclusion of the study, the mice are sacrificed and tumor size and number of tumors are assessed.

In the case of CC(C)[C@H](NC(=O)N[C@H](C(=O)N[C@H]1/C=C/CCNC(=O)/C=C/[C@H](C(C)C)NC1=O)C(C)C)C(=O)O [syringolin A], the IC50 [1] is reported as 4.03 µM, the “proteasome activity in cells” value ([1]; SKOV3, 2 hours incubation, listed as SylA) is reported as “dose-dependent manner” and the tumor formation (TH-MYCN transgenic mouse) is reported as “fewer or no tumors”.

In the case of CCCCCCC/C=C/C=C/C(=O)N[C@H](C(=O)N[C@H]1C[C@@H](O)CCNC(=O)/C=C/[C@H](C)NC1=O)[C@@H](C)O [glidobactin A], the IC50 ([1]; SKOV3, 2 hours, read-out: IC50 of proteasomal activity) is reported as 0.25 µM, the “potency of GlbA relative to SylA” value ([1]; SKOV3, ratio of IC50) is reported as “approximately 16 fold” and the tumor formation (TH-MYCN transgenic mouse) is reported as “fewer or no tumors”.
